Reference: patent publication US8481494B2, “Compounds for the treatment of diseases related to protein misfolding” (priority 2009, dated 2013)
In brackets after ≈: the same amount, converted by molar mass.

Key:
[1] = Solubility of the unprotected aminopyrazole trimers (stock solutions); settings: water (class a) or DMSO (class b)
Experimental: The ligands were dissolved in 100% DMSO as 4.95 mM stock solutions and were stored at −20° C.

[2] = Sedimentation of the pure ligand (self-association); type: physicochemical; settings: ligand itself
Experimental: (§1) In a standard FCS experiment a 5 nM Oregon-Green-labeled Aβ solution was prepared in PBS buffer with ˜3% DMSO. […] This is not surprising, because it comprises a flat arrangement of unpolar aromatics adorned with polar groups for extensive hydrogen bonding. Finally, TEM pictures were obtained from mature Aβ fibrils ([…]) as well as globular particles (3-30 nm) grown in the absence of aminopyrazole ligands.
Such an arrangement may also result in far-reaching conformational effects, indicated already be widening of the upper U-turn; these are now proposed to destroy the existing β-sheet (FIG. 12). The high positive charge of all five lysine residues requires the use of PBS with its high ionic strength for sedimentation experiments. […] Admittedly, their structures are somewhat reminiscent of the amphiphilic hybrid peptides (e.g., KLVFF-EEEEE) presented in the nineties for aggregation prevention by surface tension increase. […]
(§2) Sedimentation velocity centrifugation was performed in an XLA (BeckmanCoulter, Palo Alto, USA) equipped with absorption optics and a four hole titanium rotor. […] Radial scans were recorded at a resolution of 0.002 cm. Detection wavelength was chosen at 493 nm to observe endlabeled FITC or Oregon Green™ and to avoid background absorbance from the test compound.

[3] = target: T1, Oregon-Green-labeled Aβ (Homo sapiens, UniProt P05067); assay: Sedimentation analysis (analytical ultracentrifugation) of Aβ with ligand; type: binding
T1 construct: aggregation mixtures of Aβ(1-42)/Aβ42-OG (17.5 nM/3.5 μM) in 10 mM NaPi, pH 7.4
T1 sequence (P05067 672-713 limits assumed): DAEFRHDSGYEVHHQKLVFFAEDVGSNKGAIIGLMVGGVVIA
T1 sequence (P05067 672-713 limits assumed): as above
Experimental: as §1
FIG. 6A to 6F show the results of sedimentation velocity centrifugation: s-value-distributions of Aβ samples in the presence of Trimer-OH (FIG. 6A, FIG. 6B, FIG. 6C) vs. Trim-TEG-OEt (FIG. 6D, FIG. 6E, FIG. 6F). […] FIG. 6B, FIG. 6E: s-value distributions of the control experiments as determined by 2D-SA and Monte Carlo analysis. FIG. 6C, FIG. 6F: s-value distributions of experiments with 200 μM Trimer derivative after 5 d of incubation as determined by 2D-SA and Monte Carlo analysis.
as §2
Sedimentation data were analyzed with UltraScan 9.4 (http://www.ultrascan.uthscsa.edu). […]

[4] = target: T2, Aβ(1-42) (Homo sapiens, UniProt P05067); assay: ThT kinetics of Aβ aggregation; type: biochemical; settings: in words
T2 construct: Aβ(1-42)-peptide (Bachem, Bubendorf, Germany) was prepared in HFIP; purchased Bachem, Bubendorf
T2 sequence (P05067 672-713 limits assumed): as above
Experimental: The influence of the new β-sheet ligands, based on the aminopyrazole-trimer, on the Aβ self-assembly process was first studied kinetically. Reference curves were obtained independently for both Aβ (1-40) and Aβ (1-42). In a typical experiment, one third (⅓) equivalent of thioflavine T was added to a solution of monomeric Aβ in PBS buffer, prepared in HFIP. The increase in ThT fluorescence was monitored over time, as a measure of the total amount of accumulating aggregates. […] Both peptides reached a plateau after ˜3 days, which was set as standard time period for all consecutive aggregation assays.
Care was taken to eliminate fluorescence changes induced by any other events than the aggregation process; thus each ligand was separately shown to be non-fluorescent and not to alter Tht fluorescence in mixtures. Controls with pure Aβ were identical in peptide concentration as well as buffer and solvent composition. […] Aβ (1-42): Much more impressive is the inhibitory influence of the trimeric ligands on the aggregation kinetics of the full-length Aβ (1-42). […]
Then, a mixture of 9.5 μL ThT (62.7 μM stock solution), 6 μL PBS and 38.1 μL water (bidest.) was pipetted. […] Sixty μL of aggregation mixtures were pipetted in a 384-well plate and the fluorescence intensity (exc. at 446 nm, em. at 490 nm) was measured every hour at 37° C. […]

Row | SMILES | solubility [1] | size of micelles formed by self-association of the ligand [2] | molecular weight reduction of Aβ aggregates ([3]; corresponding to decrease to 25 S) | sedimentation coefficient of Aβ complex with ligand ([3]; dose-dependent decrease, pure Aβ above 50 S) | effect on Aβ aggregation kinetics [4]
1 | O=C(O)c1cc(NC(=O)c2cc(NC(=O)c3cc([N+](=O)[O-])n[nH]3)n[nH]2)n[nH]1 [Trimer-OH, 3-(3-(3-Nitro-1H-pyrazole-5-carboxamido)-1H-pyrazole-5-carboxamido)-1H-pyrazole-5-carboxylic acid] | 200 to 4950 µM (≈ 75.1 to 1860 µg/mL) | ~10 S | 50% | 25 S | –
2 | COC(=O)C(CCCCN)NC(=O)c1cc(NC(=O)c2cc(NC(=O)c3cc([N+](=O)[O-])n[nH]3)n[nH]2)n[nH]1.O=C(O)C(F)(F)F (centres unmarked) [Trimer-Lys-OMe] | – | – | – | – | accelerates Aβ aggregation
